System: attenuated E. coli K12 strain with a kanamycin resistance gene
Assay: colorimetric phenotypic antibiotic susceptibility test (phenol red) in capillary tubes
Type: cell-based
Settings: bacteria culture incubated in capillary tubes with added antibiotic; LB media, 0.05% phenol red; read at the 4-hour mark
Protocol: According to an embodiment, a colorimetric phenotypic testing approach was utilized to assess the antibiotic susceptibility of an attenuated E. coli K12 strain. The pH indicator phenol red was used to provide a phenotypic indication of bacterial growth. For colorimetric phenotypic testing approach, bacterial growth tests were conducted with small sample volumes in a PDMS microchip. The E. coli strain with a kanamycin resistance gene as a selection marker was first streaked and incubated overnight on LB agar plates containing kanamycin. Single colonies were subsequently picked and propagated in liquid bulk culture. Following overnight bulk culture to stationary phase, small volumes (˜1 μL) of culture were separately incubated on the PDMS chip in wells each containing a 19 μL mixture of fresh LB media, 0.05% phenol red, and the antibiotics kanamycin (control) and ampicillin (test). The metabolic activity of viable bacteria leads to an accumulation of organic acids in the growth media, which causes the phenol red to change in color from red to yellow, which is expected for the control group as the E. coli stain is kanamycin resistant.
A similar experiment was conducted by incubating the bacteria culture in capillary tubes designed to hold microliters of liquid. […]

CC1(C)S[C@@H]2[C@H](NC(=O)[C@H](N)c3ccccc3)C(=O)N2[C@H]1C(=O)O [ampicillin]
color change of phenol red pH indicator (phenotypic indication of bacterial growth): No color change

Source: patent publication US10345295B2, “Device and method for point-of-care diagnostics and antibiotic resistance identification, and applications thereof” (CORNELL UNIVERSITY, priority 2015, dated 2019)
